Source: patent US20140134261A1 (priority 2012, published 2014)
Like-named read-outs stand apart in the source and are kept apart here.

Assays:
TRPV1 receptor = TRPV1 receptor (Homo sapiens, UniProt Q8NER1); settings: cited from earlier work
[1] = humans, after ingestion of 26.6 mg of capsaicin; cited from earlier work
[2] = tested on: cytochrome (CYP) enzymes present in the human liver; settings: in vitro; cited from earlier work
[3] = in vitro; cited from earlier work
[4] = tested on: Rat peritoneal macrophages; settings: 10 μM, pre-incubated 1 h; cited from earlier work
macrophages = settings: preincubation with 10 μM; cited from earlier work
[5] = male rats, diet with 30% lard, capsaicin at 0.14% of the diet; cited from earlier work
[6] = tested on: PC-3 prostate cancer xenografts; settings: given orally; cited from earlier work
NF-κ-B = settings: pretreatment of human myeloid ML-1a cells; cited from earlier work
[7] = 1 mg/kg systemic, before cecal ligation and puncture, late sepsis period; cited from earlier work
μ-opiate receptor = μ-opiate receptor (Homo sapiens, UniProt P35372); settings: cited from earlier work
μ-opiate receptor, sequence (P35372 whole entry): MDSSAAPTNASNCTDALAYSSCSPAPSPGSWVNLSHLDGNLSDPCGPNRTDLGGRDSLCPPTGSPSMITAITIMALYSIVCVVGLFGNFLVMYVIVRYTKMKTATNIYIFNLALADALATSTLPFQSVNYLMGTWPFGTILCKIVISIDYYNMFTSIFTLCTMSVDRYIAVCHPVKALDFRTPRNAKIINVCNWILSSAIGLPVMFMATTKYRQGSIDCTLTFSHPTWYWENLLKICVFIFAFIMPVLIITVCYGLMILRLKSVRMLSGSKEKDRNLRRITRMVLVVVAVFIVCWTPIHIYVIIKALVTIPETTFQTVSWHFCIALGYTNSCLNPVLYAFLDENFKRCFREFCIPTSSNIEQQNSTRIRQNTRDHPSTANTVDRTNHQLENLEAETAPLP

TRPV1 receptor, sequence (Q8NER1 whole entry): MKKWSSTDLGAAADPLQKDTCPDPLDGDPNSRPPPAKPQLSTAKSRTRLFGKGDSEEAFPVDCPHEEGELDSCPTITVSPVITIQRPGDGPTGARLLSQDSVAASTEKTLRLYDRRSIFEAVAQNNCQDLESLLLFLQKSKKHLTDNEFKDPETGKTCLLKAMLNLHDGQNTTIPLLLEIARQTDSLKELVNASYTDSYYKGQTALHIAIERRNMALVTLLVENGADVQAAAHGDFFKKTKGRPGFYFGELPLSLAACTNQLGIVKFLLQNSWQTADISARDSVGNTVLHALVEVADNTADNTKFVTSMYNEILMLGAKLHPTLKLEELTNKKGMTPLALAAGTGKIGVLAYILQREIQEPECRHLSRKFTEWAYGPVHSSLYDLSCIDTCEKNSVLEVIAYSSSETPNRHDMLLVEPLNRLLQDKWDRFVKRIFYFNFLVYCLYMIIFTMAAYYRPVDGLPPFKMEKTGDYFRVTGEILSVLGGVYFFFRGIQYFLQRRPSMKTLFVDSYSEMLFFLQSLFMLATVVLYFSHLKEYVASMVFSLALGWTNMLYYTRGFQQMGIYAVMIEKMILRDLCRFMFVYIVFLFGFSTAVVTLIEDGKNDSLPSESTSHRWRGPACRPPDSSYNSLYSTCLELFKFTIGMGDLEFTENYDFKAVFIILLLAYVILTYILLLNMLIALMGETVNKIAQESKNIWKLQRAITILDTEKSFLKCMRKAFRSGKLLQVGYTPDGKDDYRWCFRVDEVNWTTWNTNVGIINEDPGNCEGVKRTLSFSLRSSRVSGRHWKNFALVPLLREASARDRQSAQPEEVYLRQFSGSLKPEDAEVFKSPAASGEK

Compound: COc1cc(CNC(=O)CCCCC=CC(C)C)ccc1O [capsaicin, 8-methyl-N-vanillyl-6-nonenamide]
- duration of pain at the site of application (about 1 gram of 8% capsaicin ointment on forehand): ~48 h
- burning sensation at the site of application (about 1 gram ointment (14.25% capsaicin palmitate or 8% capsaicin) on forehand, six healthy volunteers, asked after 30 minutes): intense burning
- duration of pain and inflammation (application of 8% capsaicin): almost a day
- time to intense pain at the site of application (application of 8% capsaicin): ≤ 15 min
- burning pain at the site of application (topical ointment, about 14.25% capsaicin palmitate (about 8% of capsaicin) or 8% capsaicin, no topical anesthetic): intense pain
- affinity as exogenous agonist for the TRPV1 receptor (TRPV1 receptor): low nanomolar affinity
- Cmax [1]: 2.5 (0.1) ng ml^−1
- Tmax [1]: 47.1 (2.0) min
- metabolism by CYP enzymes in the human liver [2]: metabolized rapidly
- metabolism in human skin [3]: quite slow
- inhibition of incorporation of arachidonic acid into membrane lipids [4]: 76%
- inhibition of leukotriene B4 [4]: 46%
- inhibition of leukotriene C4 [4]: 48%
- inhibition of prostaglandin E2 [4]: 48%
- superoxide anions, hydrogen peroxide, and nitrite radical production (macrophages): completely inhibited
- serum triglyceride levels versus high-fat diet without capsaicin [5]: significantly lower
- growth of xenografts as measured by size [6]: significantly slowed
- TNF-mediated activation of NF-κ-B (NF-κ-B): blocked
- lipid peroxidation in various tissues, including lung and liver [7]: decreased

Compound: Palmitoyl Ester of Capsaicin USP (Formula I, R=—(CH2)14—CH3) [capsaicin palmitate]
- burning pain at the site of application (human, in vivo): almost no burning pain
- burning sensation at the site of application (human, in vivo): did not cause any burning sensation

Compound: 0-desmethyltramadol [Example M1]
- analgesic potency relative to the parent drug tramadol (μ-opiate receptor): at least twice the analgesic potency
